Tests used:
hBMEC mono-cultures = experiment: Maximal TEER of hBMEC mono-cultures under different culture conditions, CellZscope; details: collagen type I coating
Procedure: For the screening of 24-well tissue culture inserts from different providers (Corning®, Greiner Bio-One®, BD Falcon®, Millipore®, Nunc®, and Brand®), each endothelial cell line (hCMEC/D3 (cultured with growth medium 20% FBS), hBMEC, TY10, and BB19) was seeded separately on the apical side of the filter membrane at a density varying between 1.5 × 10^4 and 17 × 10^4 cells/cm^2. Prior to seeding, the membranes were coated with rat-tail collagen type I. The tissue culture inserts were placed into a 24-well cell module of a CellZscope system (NanoAnalytics, Münster, Germany) [30] which was placed inside an incubator (37°C and 5% CO2). For in vitro models with TY10 cells, further experiments were performed for which the CellZscope system was first placed at 33°C (5% CO2) for 2 days and subsequently transferred to 37°C (5% CO2). The medium was refreshed every 2–4 days. TEER values were recorded in real-time every hour. TEER values for cell layers, expressed in Ωcm^2, were obtained by subtracting the TEER of a coated control insert without cells from a coated insert with cells. After placing the CellZscope system into the incubator, the cell module needs at least 6 h to reach 37°C. Since TEER values are highly temperature sensitive [36], recorded TEER values in this time period were not considered to be valid and are not reported. For each in vitro experiment, 2 or 3 replicates were measured. Results are expressed as means ± S.E.M. In addition to TEER values, the CellZscope system monitors the cell layer capacitance (CCL) which reflects the membrane surface area. CCL values in the range of 0.5-5.0 μF/cm^2 indicate cell confluency and validate TEER values [37, 38]. All reported TEER values in the result section belong to a CCL within this range, if not reported otherwise.

[1] = Paracellular permeability (Papp) of marker compounds through TY10 mono-cultures on 24-well inserts; format: in vitro ADME; details: human, pH 7.4, TY10 monolayers (33°C 2 days, then 37°C 2 days), Greiner Bio-one transparent PET 3.0 μm inserts, mean ± S.E.M.
Procedure: (§1) To further assess tight junction (TJ) integrity of endothelial cell layers, paracellular permeabilities of Na-F (MW 376.27) and LY (MW 550.39) were measured. These two fluorescent, non-P-glycoprotein (P-gp) substrate molecules have low BBB penetration and are widely used as barrier integrity markers for in vitro models. To obtain comparative data, hCMEC/D3 cells, hBMEC cells, and TY10 cells were seeded onto 24-well tissue culture inserts (Greiner Bio-one®, transparent polyethylene terephthalate (PET) membrane, 3.0 μm pore size, 0.6 × 10^6 pores/cm^2) and incubated at 37°C (5% CO2) (except TY10 cells) inside the CellZscope cell module (Figure 2). […]
TEER and CCL values before and after the assays were monitored continuously for integrity control. […]
(§2) For the permeability assay, tissue culture inserts were transferred into a 24-well plate containing 700 μL of pre-warmed (37°C) Ringer HEPES buffer (150 mM NaCl, 2.2 mM CaCl2, 0.2 mM MgCl2, 5.2 mM KCl, 2.8 mM glucose, 5 mM HEPES, and 6 mM NaHCO3, pH 7.4) in each well (basolateral compartment). […] Quantification of fluorescence (Na-F: excitation 490 nm, emission 514 nm; LY: excitation 430 nm, emission 535 nm) was carried out using a Chameleon microplate reader (Hidex, Turku, Finland). The apparent permeability coefficient (Papp) for Na-F and LY was calculated in centimeters/second (cm/s) according to the equation: […]

[2] = Paracellular permeability (Papp) through hBMEC contact co-culture with SVG-A astrocytes; format: in vitro ADME; details: human, mean ± S.E.M.
Procedure: as §1, §2

[3] = Recovery (mass balance) in permeability assays through mono-cultures; format: in vitro ADME; details: human, pH 7.4; all mono-culture permeability experiments (hCMEC/D3, hBMEC, TY10)
Procedure: as §2, with “compartment). Medium in inserts (apical compartment) was then replaced with 300 μL of a pre-warmed (37°C) working solution containing Na-F or LY at 10 μg/mL in Ringer HEPES buffer. The 24-well plate was incubated at 37°C on an orbital shaker (ELMI DTS-2, Riga, Latvia) with moderate speed (100 rpm) and aliquots of 250 μL of both apical and basolateral compartments were collected after 1 h.” for “compartment).”
(§3) Recovery (mass balance) of Na-F and LY was calculated with the following equation: […]
[43] where CAf and CBf are the final concentrations of the compound in the apical and basolateral compartment, respectively, CA0 is the initial concentration in the apical compartment, and VA and VB are the volumes in the apical and basolateral compartments, respectively. All results are expressed as means ± S.E.M.

[4] = Recovery (mass balance) in permeability assays through hBMEC mono-cultures and contact co-cultures; format: in vitro ADME; details: human, pH 7.4; all hBMEC mono-culture / co-culture experiments with SVG-A or HBPCT
Procedure: as §1, §2, §3

[5] = Paracellular permeability (Papp) of marker compounds through hBMEC mono-cultures on 24-well inserts; format: in vitro ADME; details: human, mean ± S.E.M.
Procedure: (§4) To further assess tight junction (TJ) integrity of endothelial cell layers, paracellular permeabilities of Na-F (MW 376.27) and LY (MW 550.39) were measured. These two fluorescent, non-P-glycoprotein (P-gp) substrate molecules have low BBB penetration and are widely used as barrier integrity markers for in vitro models. To obtain comparative data, hCMEC/D3 cells, hBMEC cells, and TY10 cells were seeded onto 24-well tissue culture inserts (Greiner Bio-one®, transparent polyethylene terephthalate (PET) membrane, 3.0 μm pore size, 0.6 × 10^6 pores/cm^2) and incubated at 37°C (5% CO2) (except TY10 cells) inside the CellZscope cell module (Figure 2). For TY10, the CellZscope system was first put at 33°C (5% CO2) for 2 days and was thereafter transferred to 37°C (5% CO2) for 2 days prior to the permeability assay (Figure 3D). Cell seeding density for hCMEC/D3 and hBMEC was 6.0 × 10^4 cells/cm^2, and for TY10 it was 3.0 × 10^4 cells/cm^2. For hBMEC, contact co-culture models with SVG-A cells (9.0 × 10^4 cells/cm^2) or HBPCT cells (6.0 × 10^4 cells/cm^2) on the basal side of the coated filter membranes were tested.
TEER and CCL values before and after the assays were monitored continuously for integrity control. All experiments for Na-F permeability were carried out at the time indicated with a black arrow in Figures 3A-D. For LY permeability assessment, TEER values were in the same range (graphs not shown). […]
as §2

[6] = Paracellular permeability (Papp) of marker compounds through hCMEC/D3 mono-cultures on 24-well inserts; format: in vitro ADME; details: human, Greiner Bio-one transparent PET 3.0 μm inserts, mean ± S.E.M.
Procedure: as §4
TEER and CCL values before and after the assays were monitored continuously for integrity control. All experiments for Na-F permeability were carried out at the time indicated with a black arrow in Figures 3A-D. For LY permeability assessment, TEER values were in the same range (graphs not shown). BB19 cells were not included in this permeability study since TEER values were extremely low.
For the permeability assay, tissue culture inserts were transferred into a 24-well plate containing 700 μL of pre-warmed (37°C) Ringer HEPES buffer (150 mM NaCl, 2.2 mM CaCl2, 0.2 mM MgCl2, 5.2 mM KCl, 2.8 mM glucose, 5 mM HEPES, and 6 mM NaHCO3, pH 7.4) in each well (basolateral compartment). Medium in inserts (apical compartment) was then replaced with 300 μL of a pre-warmed (37°C) working solution containing Na-F or LY at 10 μg/mL in Ringer HEPES buffer. The 24-well plate was incubated at 37°C on an orbital shaker (ELMI DTS-2, Riga, Latvia) with moderate speed (100 rpm) and aliquots of 250 μL of both apical and basolateral compartments were collected after 1 h. All experiments were performed at least in triplicate. Quantification of fluorescence (Na-F: excitation 490 nm, emission 514 nm; LY: excitation 430 nm, emission 535 nm) was carried out using a Chameleon microplate reader (Hidex, Turku, Finland). The apparent permeability coefficient (Papp) for Na-F and LY was calculated in centimeters/second (cm/s) according to the equation: […]

[7] = Paracellular permeability (Papp) through hBMEC contact co-culture with HBPCT pericytes; format: in vitro ADME; details: human, mean ± S.E.M.
Procedure: as §1, §2

[8] = pH 7.4, hBMEC mono-culture, growth medium 20% FBS, Greiner Bio-one transparent PET 3.0 μm inserts, 10 μg/mL apical, 1 h, 37°C
[9] = pH 7.4, hCMEC/D3 cultivated with growth medium containing 20% FBS
[10] = pH 7.4, hCMEC/D3 grown with initial medium containing 5% FBS

Question: Which results are given for C[C@@H]1C[C@H]2[C@@H]3CCC4=CC(=O)C=C[C@]4(C)[C@@]3(F)[C@@H](O)C[C@]2(C)[C@@]1(O)C(=O)CO [dexamethasone]?
Answer: Mean max. TEER ± S.E.M. (hBMEC mono-cultures; growth medium with dexamethasone 500 nM for 3 days (only apical), 9.0 × 10^4 cells/cm^2, at 4.15 d): 35.9 (± 0.338) Ωcm^2; Mean max. TEER ± S.E.M. (hBMEC mono-cultures; growth medium with dexamethasone 1000 nM for 3 days (only apical), 9.0 × 10^4 cells/cm^2, at 4.15 d): 38.0 (± 1.26) Ωcm^2

Question: Which “Mean max. TEER ± S.E.M.” value (hBMEC mono-cultures; growth medium with additional HC 500 nM for 3 days (only apical), 4.5 × 10^4 cells/cm^2, at 3.19 d) does the source give for C[C@]12CCC(=O)C=C1CC[C@@H]1[C@@H]2[C@@H](O)C[C@@]2(C)[C@H]1CC[C@]2(O)C(=O)CO [HC, hydrocortisone] here?
Answer: 43.2 (± 4.27) Ωcm^2

Question: And the “Mean max. TEER ± S.E.M.” value (hBMEC mono-cultures; growth medium with additional HC 1500 nM for 3 days (only apical), 4.5 × 10^4 cells/cm^2, at 3.19 d)?
Answer: 40.4 (± 0.646) Ωcm^2

Question: What does the source list for O=C([O-])c1ccccc1-c1c2ccc(=O)cc-2oc2cc([O-])ccc12.[Na+].[Na+] [Na-F, sodium fluorescein]?
Answer: Papp at 1 h, 10 μg/mL [1]: 12.4 ± 0.155 ×10⁻⁶ cm/s; Papp at 1 h, 10 μg/mL ([2]; pH 7.4, hBMEC co-cultured with SVG-A, medium deprived of growth factors, n = 3): 6.88 ± 0.516 ×10⁻⁶ cm/s; Papp at 1 h, 10 μg/mL ([2]; pH 7.4, hBMEC contact co-culture with SVG-A, medium with growth factors): 7.43 ± 0.2 ×10⁻⁶ cm/s; recovery at 1 h, 10 μg/mL [3]: 75 to 87%; recovery at 1 h, 10 μg/mL [4]: 98 to 102%; Papp at 1 h, 10 μg/mL [5, 8]: 5.08 ± 0.22 ×10⁻⁶ cm/s; Papp at 1 h, 10 μg/mL ([5]; pH 7.4, hBMEC monolayers cultured without growth factors, n = 3): 5.11 ± 0.0487 ×10⁻⁶ cm/s; Papp at 1 h, 10 μg/mL [6, 9]: 13.4 ± 0.484 ×10⁻⁶ cm/s; Papp at 1 h, 10 μg/mL [6, 10]: 12.5 ± 0.326 ×10⁻⁶ cm/s; Papp at 1 h, 10 μg/mL ([7]; pH 7.4, hBMEC co-cultured with HBPCT, medium deprived of growth factors, n = 3): 7.22 ± 0.455 ×10⁻⁶ cm/s; Papp at 1 h, 10 μg/mL ([7]; pH 7.4, hBMEC contact co-culture with HBPCT, medium with growth factors): 8.26 ± 0.893 ×10⁻⁶ cm/s

Question: For human epidermal growth factor [hEGF], which “Mean max. TEER ± S.E.M.” value (hBMEC mono-cultures; growth medium with additional hEGF 50 ng/mL for 3 days (only apical), 9.0 × 10^4 cells/cm^2, at 4.15 d) is on record?
Answer: 36.4 (± 0.902) Ωcm^2

Question: What about the “Mean max. TEER ± S.E.M.” value (hBMEC mono-cultures; growth medium with additional hEGF 100 ng/mL for 3 days (only apical), 9.0 × 10^4 cells/cm^2, at 4.15 d) of the same compound?
Answer: 40.0 (± 1.94) Ωcm^2

Question: With C=CS(=O)(=O)c1cccc(N2C(=O)c3cc(S(=O)(=O)[O-])cc4c(N)c(S(=O)(=O)[O-])cc(c34)C2=O)c1.[Li+].[Li+] [LY, Lucifer Yellow VS dilithium salt] as the compound, how does the Papp at 1 h, 10 μg/mL [1] read?
Answer: 9.68 ± 0.413 ×10⁻⁶ cm/s

Question: And the recovery at 1 h, 10 μg/mL [3]?
Answer: 66 to 79%

Question: What about the Papp at 1 h, 10 μg/mL [5, 8] of the same compound?
Answer: 5.39 ± 0.364 ×10⁻⁶ cm/s

Question: What about the Papp at 1 h, 10 μg/mL [6, 9] of the same compound?
Answer: 11.7 ± 0.957 ×10⁻⁶ cm/s

Question: And the Papp at 1 h, 10 μg/mL [6, 10]?
Answer: 10 ± 0.498 ×10⁻⁶ cm/s
